The record followed here is US20240226342A1, “REACTIVE OXYGEN SPECIES IMAGING AGENTS” (Washington University, priority 2022, published 2024).

“And” between values parts separate entries of the source, which are not always exact repeats. Identical values can stand only once.

Series [1] deals with LPS induced systemic inflammation of mouse brain. In words: Dynamic PET/CT imaging in LPS-treated mice. The following applies: for brain uptake in LPS-treated mice relative to saline-treated mice: 24 h post LPS, frames 45-60 min. The format is in vivo. As for the experimental part: FIG. 9A-FIG. 9D is an exemplary embodiment showing preclinical PET/CT imaging in accordance with the present disclosure. C57BI6 mice (n=4) were injected with either LPS or saline intraperitoneally. 24 h post treatments, 18F-SLN-128 (100 μCi) was injected via tail-vein into mice. Dynamic PET images were acquired from 0 min to 60 min post tail-vein injection of the radiotracer. PET/CT images as shown are a summation frames from 45-60 min. FIG. 9A is an image showing saline treated mice (control). FIG. 9B is an image showing LPS treated mice (5 μg/g, 24 h post treatment); FIG. 9C is a bar graph showing quantified uptake: % ID/cm3. FIG. 9D is a bar graph showing post imaging biodistribution: Brain Uptake (% ID/g). mean±SD, where **p<0.01 and […] is determined by an unpaired student ttest) in brains of BI6 mice (n=4) 24 h post either LPS- or saline treatments.
Systemic administration of LPS induces oxidative stress and resulting a release of inflammatory cytokines, sustained microglial activation, and neuronal cell loss in brain areas, such as the hippocampus, cerebral cortex, substantia nigra, ventral tegmental area, and thalamus, alters the levels of neurotransmitters in adult animals, and cerebellum. Thus LPS-induced inflammation provides a useful rodent model for preclinical imaging of ^18F-SLN-128. […] Finally, the brain uptake (see e.g., FIG. 9C) derived from PET imaging also correlated with 60 min post imaging quantified uptake (see e.g., FIG. 9D) indicating potential of the radiotracer for imaging endotoxin mediated brain inflammation in vivo. Mitochondrial dysfunction is a major event in the pathogenesis of Huntington disease (HD). It has also been reported that systemic 3-NP administration leads to oxidized proteins in the striatum, as well as a massive loss of striatal neurons. To evaluate potential of ^18F-SLN-128 PET imaging for 3NP-induced ROS-mediated neurodegeneration in mice, PET/CT imaging was performed.

A short description of series [2]: Quantitative biodistribution in normal mice. The format is in vivo. The procedure: FIG. 8 is a line graph showing biodistribution of 18F-SLN128 in normal BI6 mice in accordance with the present disclosure. Shown is uptake (5 min, 60 min, 2 h) in brain and other critical organs quantified in terms of percent injected dose per gram of the tissue (% ID/g).
Lipopolysaccharide (LPS), is an endotoxin, released from Gram-negative bacteria. Next, the ability of SLN128 to detect either LPS or 3-Nitropropionic acid (3-NP) induced ROS in human cells was evaluated through live-cell fluorescence imaging. LPS is detected by toll-like receptor 4 (TLR4), a broadly expressed pattern recognition receptor found both on different cell types, including glial cells, and neurons. TLR4 engagement triggers the generation of mitochondrial superoxide from electron transport complex I, which in turn promotes bacterial killing. LPS treatment also triggers increased cytokine and chemokine expression in brain thus driving inflammation. Furthermore, 3-NP is an irreversible inhibitor of mitochondrial succinate dehydrogenase (SDH), which has been used to explore the molecular mechanisms of cell death associated with mitochondrial dysfunction and neurodegeneration. […] To this end, intracellular localization of SLN-128 in either the presence or absence of mitotracker deep red (control) was simulataneously assessed in either the LPS or 3-NP stimulated human glioblastoma U87 cells (see e.g., FIG. 4). […] Further, uptake of SLN 128 in U87 cells was compared under identical conditions with mitoSOX, a probe extensively used for assessing mROS. […] To test, whether SLN128 has ability to monitor therapeutic effects in U87 cells under identical conditions, SLN128 was incubated in either presence or absence of resveratrol (commonly used for mitigating mitochondrial ROS production) under 3 different conditions. The probe uptake was quantified as corrected total cell fluorescence (CTCF) using image J as described earlier. […] (see e.g., FIG. 6). […] Uptake in brain and other critical organs was analyzed in terms of percent injected dose per gram of the tissue (% ID/g).
For comparison, brain uptake ratios of [^18F]-AVID-45 ([^18F]-Florbetapir)(2 min/2 h) and [^18F]-Florbetaben (2 min/4 h) in normal mice are 4.07 (% ID/g (brain): 2 min: 7.33±1.54; 2 h: 1.80±0.07; 7.33/1.80; 4.07) 57 and 5.0 (% ID/g (brain): 2 min: 4.77; 4 h: 0.95; 4.77/0.95; 5.02) 58, respectively.

Series [3] is described as follows: Metabolite analysis after incubation in human serum or plasma (QC radio-HPLC). The format is in vitro ADME. The following applies: 37° C., upto 1 h. The source says:
Oxidative imbalance and functional impairment of mitochondria may mediate pathogenesis of neurodegenerative diseases and mitochondria are among the prominent intracellular site for ROS generation. Thus, a 2nd generation redox-sensitive neuroROS tracer was designed (also identified as either as SLN 128 or 12 (noncarrier added) or ^18F-13 (PET tracer); see e.g., FIG. 2) for the detection of total ROS within cells undergoing pro-oxidative stage. While the unlabeled/noncarrier counterpart of the probe 12 was synthesized and characterized through standard analytical methods (Proton NMR, proton-decoupled 13C-NMR, HRMS, Elemental analysis), the carrier added ^18F-13 (Lab ID:18F-SLN128) was synthesized through a reaction between the tosylated precursor 11 and KF{18F}-/Kryptofix 222 and followed by deprotection of methoxymethyl ether 11 in situ with TFA as shown (see e.g., FIG. 2), purified on semipreparatory C-18 column, the desired fraction with a Rt=12 min was collected, concentrated, reconstituted in 5% ethanol/95%sterile saline and analyzed for purity on QC radio-HPLC (radiochemical yield: 15-20%; radiochemical purity >99%; specific activity:1400-1700 Ci/mmole) and identified by spiking with the noncarrier added/unlabeled counterpart. […] For analysis of metabolites, ^18F-SLN-128 was incubated with either human serum or plasma at 37° C. as a function of time and analyzed on QC Radio-HPLC.

`COc1ccc2c(c1)N(C)C(c1ccc(O)c(OCC[18F])c1)c1cccn1-2` (stereo not drawn) [18F-SLN-128]: the “brain uptake in LPS-treated mice relative to saline-treated mice” value in series [1] is 2.5 fold. For the same compound, the “brain uptake in LPS-treated mice relative to saline-treated mice” value in series [1] (listed as 18F-SLN128) was determined as 2 fold. For the same compound, the “retention in brains of LPS treated mice” value in series [1] (compared with saline-treated counterparts) was “stable retention in brains of LPS treated mice”. In series [2] (healthy mice), the “brain uptake clearance ratio relative to [18F]-AV-45” value amounted to 2.9 fold and the “brain uptake clearance ratio relative to [18F]-Florbetaben” value is on record as 2.3 fold. Also, in series [2] (mouse, in vivo), the “clearance ratio relative to the benchmark (≥3.5) for crossing the blood-brain barrier” value was 3.3 fold. In addition, in series [2] (normal mice), the “brain clearance ratio 5 min/60 min” value was 11.4 and 11.3; the “clearance from other critical organs” value is on record as “excreted from other critical organs over 1 h”; the “defluorination / bone accumulation” value is reported as “without defluorination (no bone accumulation)”. Further, the brain uptake in series [2] (normal mice, 5 min post tail-vein injection) was 4.11±0.32 % ID/g. In series [2] (normal mice, 60 min post tail-vein injection), this compound had a brain uptake of 0.36±0.01 % ID/g. In addition, the “metabolic stability in human serum” value in series [3] is “remains non-metabolized”.
